{"source": "patent US20260167623A1", "about": "(NIKANG THERAPEUTICS, INC., priority 2022, published 2026)", "biological_target": "T1, CDK2 (Homo sapiens, UniProt P24941)", "T1 construct": "High-Throughput Measurement of Cellular Endogenous CDK2; endogenous in cells; host or cells: OVCAR3", "assay": "Inhibition of CDK2: phospho-Rb (S807/811) HTRF measurement in OVCAR3 cells, 24 h", "assay_type": "cell-based", "conditions": "24 h compound treatment, read-out: pRB_OVCAR3_24h", "in_short": "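OVCAR3 cells, seeded overnight, were exposed to compounds at 0.3 to 10,000 nM for 24 h, then lysed. Rb S807/811 phosphorylation read by HTRF (665/620 nm ratio) after 4 h detection at room temperature; data normalized to DMSO and IC50 from four-parameter logistic fit.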", "data": [{"smiles": "Cn1nc(N2CCC(=O)NC2=O)c2ccc(C3CCN(CC4CCCN(c5cccc(S(=O)(=O)N6CCC(Nc7ncc(Cl)cn7)CC6)c5)CC4)CC3)cc21", "note": "(centres unmarked) [Example 136, 1-(6-(1-((1-(3-((4-((5-chloropyrimidin-2-yl)amino)piperidin-1-yl)sulfonyl)phenyl)-azepan-4-yl)methyl)piperidin-4-yl)-1-methyl-1H-indazol-3-yl)dihydropyrimidine-2,4(1H,3H)-dione]", "values": [{"measurement": "IC50", "result": "100 to 500", "unit": "nM"}]}, {"smiles": "Cn1nc(N2CCC(=O)NC2=O)c2cc(C3CCN(CC4CCN(c5cccc(S(=O)(=O)N6CCC(Nc7ncc(C(F)(F)F)cn7)CC6)c5)CC4)CC3)ccc21", "note": "[Example 137, 1-(1-methyl-5-(1-((1-(3-((4-((5-(trifluoro-methyl)pyrimidin-2-yl)amino)piperidin-1-yl)sulfonyl)phenyl)piperidin-4-yl)methyl)-piperidin-4-yl)-1H-indazol-3-yl)dihydropyrimidine-2,4(1H,3H)-dione]", "values": [{"measurement": "IC50", "result": "100 to 500", "unit": "nM"}]}, {"smiles": "Cn1nc(N2CCC(=O)NC2=O)c2ccc(N3CCC(CN4CCN(c5cccc(S(=O)(=O)N6CCC(Nc7ncc(Cl)cn7)CC6)c5)CC4)CC3)cc21", "note": "[Example 138, 1-(6-(4-((4-(3-((4-((5-chloropyrimidin-2-yl)amino)piperidin-1-yl)sulfonyl)phenyl)-piperazin-1-yl)methyl)piperidin-1-yl)-1-methyl-1H-indazol-3-yl)dihydropyrimidine-2,4(1H,3H)-dione]", "values": [{"measurement": "IC50", "result": "> 2500", "unit": "nM"}]}, {"smiles": "Cn1nc(N2CCC(=O)NC2=O)c2ccc(C3CCN(Cc4ccc(C5CCN(S(=O)(=O)N6CCC(Nc7ncc(Cl)cn7)CC6)CC5)cc4)CC3)cc21", "note": "[Example 139, 1-(6-(1-(4-(1-((4-((5-chloropyrimidin-2-yl)amino)piperidin-1-yl)sulfonyl)piperidin-4-yl)benzyl)piperidin-4-yl)-1-methyl-1H-indazol-3-yl)dihydropyrimidine-2,4(1H,3H)-dione]", "values": [{"measurement": "IC50", "result": "> 2500", "unit": "nM"}]}, {"smiles": "Cn1nc(N2CCC(=O)NC2=O)c2ccc(C3CCN(CC4CCN(c5cc(S(=O)(=O)N6CCC(Nc7ncc(Cl)cn7)CC6)ccc5F)CC4)CC3)cc21", "note": "[Example 140, 1-(6-(1-((1-(5-((4-((5-chloropyrimidin-2-yl)amino)piperidin-1-yl)sulfonyl)-2-fluorophenyl)piperidin-4-yl)methyl)-piperidin-4-yl)-1-methyl-1H-indazol-3-yl)dihydropyrimidine-2,4(1H,3H)-dione]", "values": [{"measurement": "IC50", "result": "1 to 100", "unit": "nM"}]}, {"smiles": "CCOC(=O)C1(CN2CCC(c3ccc4c(N5CCC(=O)NC5=O)nn(C)c4c3)CC2)CCN(c2cccc(S(=O)(=O)N3CCC(Nc4ncc(Cl)cn4)CC3)c2)CC1", "note": "[Example 141, ethyl 1-(3-((4-((5-chloropyrimidin-2-yl)amino)piperidin-1-yl)sulfonyl)phenyl)-4-((4-(3-(2,4-dioxotetrahydropyrimidin-1(2H)-yl)-1-methyl-1H-indazol-6-yl)piperidin-1-yl)methyl)piperidine-4-carboxylate]", "values": [{"measurement": "IC50", "result": "500 to 2500", "unit": "nM"}]}, {"smiles": "Cn1nc(N2CCC(=O)NC2=O)c2ccc(C3CCN(CC4CCN(c5cc(S(=O)(=O)N6CCC(Nc7ncc(C(F)(F)F)cn7)CC6)ccc5F)CC4)CC3)cc21", "note": "[Example 142, 1-(6-(1-((1-(2-fluoro-5-((4-((5-(trifluoro-methyl)pyrimidin-2-yl)amino)piperidin-1-yl)sulfonyl)phenyl)piperidin-4-yl)methyl)-piperidin-4-yl)-1-methyl-1H-indazol-3-yl)dihydropyrimidine-2,4(1H,3H)-dione]", "values": [{"measurement": "IC50", "result": "1 to 100", "unit": "nM"}]}, {"smiles": "Cn1nc(N2CCC(=O)NC2=O)c2ccc(N3CCN(CC4CCN(c5cccc(S(=O)(=O)N6CCC(Nc7ncc(Cl)cn7)CC6)c5)CC4)C4CC43)cc21", "note": "(centres unmarked) [Example 143, 1-(6-(5-((1-(3-((4-((5-chloropyrimidin-2-yl)amino)piperidin-1-yl)sulfonyl)phenyl)-piperidin-4-yl)methyl)-2,5-diazabicyclo-[4.1.0]heptan-2-yl)-1-methyl-1H-indazol-3-yl)dihydropyrimidine-2,4(1H,3H)-dione]", "values": [{"measurement": "IC50", "result": "500 to 2500", "unit": "nM"}]}, {"smiles": "Cn1nc(N2CCC(=O)NC2=O)c2ccc(C3CCN(C[C@H]4CCN(c5cccc(S(=O)(=O)N6CCC(Nc7ncc(Cl)cn7)CC6)c5)C4)CC3)cc21", "note": "[Example 144, (R)-1-(6-(1-((1-(3-((4-((5-chloropyrimidin-2-yl)amino)piperidin-1-yl)sulfonyl)phenyl)-pyrrolidin-3-yl)methyl)piperidin-4-yl)-1-methyl-1H-indazol-3-yl)dihydropyrimidine-2,4(1H,3H)-dione]", "values": [{"measurement": "IC50", "result": "100 to 500", "unit": "nM"}]}, {"smiles": "Cn1nc(N2CCC(=O)NC2=O)c2cccc(C3CCN(CC4CCN(c5cccc(S(=O)(=O)N6CCC(Nc7ncc(C(F)(F)F)cn7)CC6)c5)CC4)CC3)c21", "note": "[Example 145, 1-(1-methyl-7-(1-((1-(3-((4-((5-(trifluoro-methyl)pyrimidin-2-yl)amino)piperidin-1-yl)sulfonyl)phenyl)piperidin-4-yl)methyl)-piperidin-4-yl)-1H-indazol-3-yl)dihydropyrimidine-2,4(1H,3H)-dione]", "values": [{"measurement": "IC50", "result": "100 to 500", "unit": "nM"}]}, {"smiles": "Cn1nc(N2CCC(=O)NC2=O)c2ccc(C3CCN(Cc4cccc(S(=O)(=O)N5CC6(CC(Nc7ncc(C(F)(F)F)cn7)C6)C5)c4)CC3)cc21", "note": "[Example 146, 1-(1-methyl-6-(1-(3-((6-((5-(trifluoro-methyl)pyrimidin-2-yl)amino)-2-azaspiro[3.3]heptan-2-yl)sulfonyl)benzyl)-piperidin-4-yl)-1H-indazol-3-yl)dihydropyrimidine-2,4(1H,3H)-dione]", "values": [{"measurement": "IC50", "result": "> 2500", "unit": "nM"}]}, {"smiles": "Cn1nc(N2CCC(=O)NC2=O)c2ccc(C3CCN(Cc4cccc(S(=O)(=O)N5CC(Nc6ncc(C(F)(F)F)cn6)C5)c4)CC3)cc21", "note": "[Example 154, 1-(1-methyl-6-(1-(3-((3-((5-(trifluoromethyl)pyrimidin-2-yl)amino)azetidin-1-yl)sulfonyl)benzyl)piperidin-4-yl)-1H-indazol-3-yl)dihydropyrimidine-2,4(1H,3H)-dione]", "values": [{"measurement": "IC50", "result": "> 2500", "unit": "nM"}]}, {"smiles": "Cn1cc(-c2cnc(NC3CCN(S(=O)(=O)c4cccc(N5CCC(CN6CCC(c7ccc8c(N9CCC(=O)NC9=O)nn(C)c8c7)CC6)CC5)c4)CC3)nc2)cn1", "note": "[Example 155, 1-(1-methyl-6-(1-((1-(3-((4-((5-(1-methyl-1H-pyrazol-4-yl)pyrimidin-2-yl)amino)piperidin-1-yl)sulfonyl)phenyl)piperidin-4-yl)methyl)piperidin-4-yl)-1H-indazol-3-yl)dihydropyrimidine-2,4(1H,3H)-dione]", "values": [{"measurement": "IC50", "result": "> 2500", "unit": "nM"}]}, {"smiles": "Cn1nc(N2CCC(=O)NC2=O)c2ccc(C3CCN(CC4CCC(c5cccc(S(=O)(=O)N6CCC(Nc7ncc(Cl)cn7)CC6)c5)CC4)CC3)cc21", "note": "(centres unmarked) [Example 156, 1-(6-(1-((4-(3-((4-((5-chloropyrimidin-2-yl)amino)piperidin-1-yl)sulfonyl)phenyl)cyclohexyl)methyl)piperidin-4-yl)-1-methyl-1H-indazol-3-yl)dihydropyrimidine-2,4(1H,3H)-dione 2,2,2-trifluoroacetate]", "values": [{"measurement": "IC50", "result": "100 to 500", "unit": "nM"}]}, {"smiles": "Cn1nc(N2CCC(=O)NC2=O)c2ccc(C3CCN(Cc4ccc(C5CCCN(S(=O)(=O)N6CCC(Nc7ncc(Cl)cn7)CC6)C5)cc4)CC3)cc21", "note": "(centres unmarked) [Example 157, 1-(6-(1-(4-(1-((4-((5-chloropyrimidin-2-yl)amino)piperidin-1-yl)sulfonyl)piperidin-3-yl)benzyl)piperidin-4-yl)-1-methyl-1H-indazol-3-yl)dihydropyrimidine-2,4(1H,3H)-dione]", "values": [{"measurement": "IC50", "result": "500 to 2500", "unit": "nM"}]}, {"smiles": "Cn1nc(N2CCC(=O)NC2=O)c2ccc(C3CCN(CC4CCN(c5ccc(S(=O)(=O)N6CCC(Nc7ncc(Cl)cn7)CC6)cc5)CC4)CC3)cc21", "note": "[Example 158, 1-(6-(1-((1-(4-((4-((5-chloropyrimidin-2-yl)amino)piperidin-1-yl)sulfonyl)phenyl)piperidin-4-yl)methyl)piperidin-4-yl)-1-methyl-1H-indazol-3-yl)dihydropyrimidine-2,4(1H,3H)-dione]", "values": [{"measurement": "IC50", "result": "500 to 2500", "unit": "nM"}]}, {"smiles": "Cn1nc(N2CCC(=O)NC2=O)c2ccc(N3CCN(CC4CCN(c5cccc(S(=O)(=O)N6CCC(Nc7ncc(Cl)cn7)CC6)c5)CC4)CC3(C)C)cc21", "note": "[Example 159, 1-(6-(4-((1-(3-((4-((5-chloropyrimidin-2-yl)amino)piperidin-1-yl)sulfonyl)phenyl)piperidin-4-yl)methyl)-2,2-dimethylpiperazin-1-yl)-1-methyl-1H-indazol-3-yl)dihydropyrimidine-2,4(1H,3H)-dione]", "values": [{"measurement": "IC50", "result": "100 to 500", "unit": "nM"}]}, {"smiles": "Cn1nc(N2CCC(=O)NC2=O)c2ccc(C3CCN(CC4CCN(c5cc(C#N)cc(S(=O)(=O)N6CCC(Nc7ncc(Cl)cn7)CC6)c5)CC4)CC3)cc21", "note": "[Example 160, 3-((4-((5-chloropyrimidin-2-yl)amino)piperidin-1-yl)sulfonyl)-5-(4-((4-(3-(2,4-dioxotetrahydropyrimidin-1(2H)-yl)-1-methyl-1H-indazol-6-yl)piperidin-1-yl)methyl)piperidin-1-yl)benzonitrile 2,2,2-trifluoroacetate]", "values": [{"measurement": "IC50", "result": "100 to 500", "unit": "nM"}]}, {"smiles": "Cn1nc(N2CCC(=O)NC2=O)c2ccc(C3CCN(CC4CCN(c5ccc(C#N)c(S(=O)(=O)N6CCC(Nc7ncc(Cl)cn7)CC6)c5)CC4)CC3)cc21", "note": "[Example 161, 2-((4-((5-chloropyrimidin-2-yl)amino)piperidin-1-yl)sulfonyl)-4-(4-((4-(3-(2,4-dioxotetrahydropyrimidin-1(2H)-yl)-1-methyl-1H-indazol-6-yl)piperidin-1-yl)methyl)piperidin-1-yl)benzonitrile]", "values": [{"measurement": "IC50", "result": "> 2500", "unit": "nM"}]}, {"smiles": "Cn1nc(N2CCC(=O)NC2=O)c2ccc(C3CCN(Cc4cnn(C5CCN(S(=O)(=O)N6CCC(Nc7ncc(Cl)cn7)CC6)CC5)c4)CC3)cc21", "note": "[Example 163, 1-(6-(1-((1-(1-((4-((5-chloropyrimidin-2-yl)amino)piperidin-1-yl)sulfonyl)piperidin-4-yl)-1H-pyrazol-4-yl)methyl)piperidin-4-yl)-1-methyl-1H-indazol-3-yl)dihydropyrimidine-2,4(1H,3H)-dione]", "values": [{"measurement": "IC50", "result": "> 2500", "unit": "nM"}]}]}
